Reference: US9855205B2, “Use of zinc coceth sulfate as an antibacterial agent against propionibacterium acnes” (PIERRE FABRE DERMO-COSMETIQUE, priority 2012, dated 2018)

Tests used:
[1] = system: Propionibacterium acnes ATCC6919; experiment: Evaluation of the bactericidal activity against P. acnes (log reduction over contact time); type: cell-based; conditions: Zetesol Zn at 20% (5% active zinc coceth sulfate)
Experimental: The reduction over time of the log 10 of the number of germs in relation to initial number of germs (log R parameter) is evaluated.
The strain tested is Propionibacterium acnes ATCC6919.
Zetesol Zn® was tested at the concentration of 20% (i.e. 5% of active ingredient zinc coceth sulfate).
Method • placing into contact of the product to be tested with suspensions of P. acnes titrated at about 10^6 CFU/ml for 1, 5, 10 and 15 minutes. • Viable count after each duration of contact by inclusion of 1 ml of the sample in a culture agar (Columbia) • Incubation 72 hours at 36° C. in anaerobic conditions • Viable count of residual bacteria via direct counting.
Calculation of the fall in log 10:
The calculation of the fall in log 10 of the number of CFU/ml is carried out according to the formula hereinbelow: Logarithmic reduction=LOG 10(number of CFU present at TO/number of CFU remaining at Tx)
The results indicated in table 1 are the average of two independent tests (except for the duration of 10 min where only 1 test was carried out). Also see FIG. 1. […]

[2] = pH of zinc coceth sulfate; type: physicochemical
[3] = system: chorio-allantoic membrane of an embryonated chicken egg; experiment: Het Cam test (tolerance on the mucosa); conditions: 1% solution, irritant effects within five minutes, tenth day of incubation
Experimental: Zinc coceth was tested in a 1% solution.

[4] = Irritant and sensitising potential

Q: What does the source list for Zinc coceth sulfate [Zetesol ® Zn]?
A: Log Reduction in 1 minute ([1]; contact 1 min, average of two tests): 0.63 log; Log Reduction in 5 minutes ([1]; contact 5 min, average of two tests): 2.06 log; Log Reduction in 10 minutes ([1]; contact 10 min, only 1 test): 3.65 log; Log Reduction in 15 minutes ([1]; contact 15 min, average of two tests): >5.04 log; pH [2]: 4.5; tolerance on the mucosa [3]: good tolerance on the mucosa; irritant and sensitising potential [4]: devoid of any irritant and sensitising potential
